Assay results published in patent EP0061907A1, “Secondary amines, their preparation, pharmaceutical compositions containing them and their use” (BEECHAM GROUP PLC, priority 1981, dated 1982).

Tests used:
Format in all cases: in vivo
Female CFLP mice = test: Hypoglycaemic activity: blood glucose curve after subcutaneous glucose load in fasted mice; settings: 2 hour period after glucose 1 g/kg s.c., compared with control mice given water
Protocol: Female CFLP mice, weighing approx. 25 g, were fasted for 24 hours prior to the study. The compounds under study were administered orally as an aqueous solution to each of 6 mice. 30 Minutes later a blood sample ([…]) was obtained from the tail for the analysis of blood glucose. Immediately after taking the blood sample, glucose (1 g/kg body weight) was administered subcutaneously to each mouse. 6 Mice were given water as a control. Blood samples were then obtained from each mouse at 30 minute intervals for 120 minutes. Compounds that produced a significant (P<0.05) reduction on blood glucose, compared with control mice given water, at any time interval, were considered active. The area under the blood glucose curve over the 2 hour period after the administration of the glucose was calculated for each compound and compared with the value for control animals.

genetically obese mice = test: Anti-obesity activity: carcass lipid of genetically obese mice after daily oral dosing for 28 days
Protocol: The compounds were administered by oral gavage in water or carboxymethyl-cellulose suspension to genetically obese mice daily for 28 days. At the end of the time the carcass composition was determined.

Male CFLP mice = test: Platelet aggregation inhibition activity: response of blood platelet concentration to intravenous collagen in mice; settings: two hours before intravenous collagen
Protocol: Male CFLP mice (ca 20g, n=11 or 12) were dosed orally with compound or vehicle (controls) after an overnight fast. Two hours later each mouse received an intravenous dose of collagen ([…], pH 6-6.6). Exactly 30 sec. after injection of collagen, each mouse was placed in a chamber of C02 until respiration ceased. […] Each concentration was expressed as a per cent of that obtained in a tail blood sample taken immediately before injection of collagen.

rat ear = test: Anti-inflammatory activity: croton oil induced inflammation of the rat ear; settings: topical in irritant vehicle, ear weight after 6 hours, active = significant (5% level) reduction in ear weight vs non-drug treated control
Protocol: The method used is based on that described by G. Tonelli et al (Endocrinology, 77, 625-634, 1965). An inflammation is induced in the rat ear by the application of 50 µl of a 1% solution of croton oil in tetrahydrofuran, test compounds being dissolved in the irritant vehicle. After 6 hours the inflammation is assessed by killing the animals and weighing the ears. Topical anti-inflammatory activity of a compound is generally considered to be shown when a significant (5% level) reduction in ear weight is seen compared to non-drug treated control.

Compound: CNC(C)Cc1ccc(CC(C)NCC(O)c2cccc(Cl)c2)cc1 (stereo not shown) [Example 25, N-(2-(4-(2-N'-Methylaminopropyl)phenyl)-1-methylethyl) -2-hydroxy-2-(3-chlorophenyl)ethanamine]
- REDUCTION IN AREA UNDER BLOOD GLUCOSE CURVE (%) (Female CFLP mice; 2.5 µ mol/kg orally): 41%

Compound: CNCc1ccc(C[C@@H](C)NC[C@H](O)c2cccc(C(F)(F)F)c2)cc1 (racemic) [Example 15, (RR,SS) N-(2-(4-N'-Methylaminomethylphenyl)-1-methylethyl)-2-hydroxy-2-(3-trifluoromethylphenyl) ethanamine]
- REDUCTION IN AREA UNDER BLOOD GLUCOSE CURVE (%) (Female CFLP mice; 2.5 µ mol/kg orally): 19%

Compound: CN[C@H](C)c1ccc(CC(C)NCC(O)c2cccc(Cl)c2)cc1 (stereo partly drawn) [Example 24, N-(2-(4-(1-(R)-N'-Methylaminoethyl)phenyl)-1-methylethyl) -2-hydroxy-2-(3-chlorophenyl)ethanamine]
- REDUCTION IN AREA UNDER BLOOD GLUCOSE CURVE (%) (Female CFLP mice; 50 µ mol/kg orally): 17%

Compound: CNCc1ccc(CC(C)NCC(O)c2ccccc2)cc1 (stereo not shown) [Example 7, N-(2-(4-N'-Methylaminomethylphenyl)-1-methylethyl)-2-hydroxy-2-phenylethanamine]
- g LIPID/MOUSE TREATED (genetically obese mice; 9.9 mg/kg p.o. daily for 28 days, control 23.13): 20.56 g

Compound: CNCCCCCCc1ccc(CC(C)NCC(O)c2cccc(Cl)c2)cc1 (stereo not shown) [Example 26, N-(2-(4-(6-N'-Methylaminohexyl)phenyl)-1-methylethyl)-2-hydroxy-2-(3-chlorophenyl) ethanamine]
- REDUCTION IN AREA UNDER BLOOD GLUCOSE CURVE (%) (Female CFLP mice; 2.5 µ mol/kg orally): 53%

Compound: CC(Cc1ccc(CN)cc1)NCC(O)c1ccccc1 (stereo not shown) [Example 1, N-(2-(4-Aminomethylphenyl)-1-methylethyl)-2-hydroxy-2-phenylethanamine]
- g LIPID/MOUSE TREATED (genetically obese mice; 6.25 mg/kg p.o. daily for 28 days, control 21.52): 17.98 g
- REDUCTION IN AREA UNDER BLOOD GLUCOSE CURVE (%) (Female CFLP mice; 2.5 µ mol/kg orally): 29%

Compound: CCc1cccc(C(O)CNC(C)Cc2ccc(CNC)cc2)c1 (stereo not shown) [Example 10, N-(2-(4-N'Methylaminomethylphenyl)-1-methylethly)-2-hdroxy-2-(3-ethylphenyl) ethanamine]
- REDUCTION IN AREA UNDER BLOOD GLUCOSE CURVE (%) (Female CFLP mice; 100.0 µ mol/kg orally): 49%

Compound: CNCCCCc1ccc(CC(C)NCC(O)c2cccc(Cl)c2)cc1 (stereo not shown) [Example 27, N-(2-(4-(4-N'-Methylaminobutyl)phenyl)-1-methylethyl)-2-hydroxy-2-(3-chlorophenyl) ethanamine]
- REDUCTION IN AREA UNDER BLOOD GLUCOSE CURVE (%) (Female CFLP mice; 2.5 µ mol/kg orally): 10%

Compound: CN[C@@H](C)c1ccc(CC(C)NCC(O)c2cccc(Cl)c2)cc1 (stereo partly drawn) [Example 23, N-(2-(4-(1-(S)-N'-Methylaminoethyl)phenyl)-1-methylethyl)-2-hydroxy-2-(3-chlorophenyl)ethanamine]
- REDUCTION IN AREA UNDER BLOOD GLUCOSE CURVE (%) (Female CFLP mice; 50 µ mol/kg orally): 26%

Compound: CC(Cc1ccc(CN)cc1)NCC(O)c1cccc(C(F)(F)F)c1 (stereo not shown) [Example 2, N-(2-(4-Aminomethylphenyl)-1-methylethyl)-2-hydroxy-2-(3-trifluoromethylphenyl) ethanamine]
- g LIPID/MOUSE TREATED (genetically obese mice; 11.8 mg/kg p.o. daily for 28 days, control 25.09): 20.87 g
- % Inhibition of re-sponse to collagen (Male CFLP mice; 10 µmol/kg p.o.): 29 p<0.01%
- ACTIVITY (rat ear; 0.5 mg/rat ear): Active
- REDUCTION IN AREA UNDER BLOOD GLUCOSE CURVE (%) (Female CFLP mice; 2.5 µ mol/kg orally): 24%

Compound: CC(Cc1ccc(CN)cc1)NCC(O)c1cccc(Cl)c1 (stereo not shown) [Example 6, N-(2-(4-Aminomethylphenyl}-1-methylethyl)-2-hydroxy-2-(3-chlorophenyl) ethanamine]
- g LIPID/MOUSE TREATED (genetically obese mice; 10.9 mg/kg p.o. daily for 28 days, control 18.75): 17.38 g

Compound: CNCc1ccc(CC(C)NCC(O)c2cccc(C(F)(F)F)c2)cc1 (stereo not shown) [Example 3, N-(2-(4-N'-Mcthylaminomethylphenyl)-1-methylethyl)-2-hydroxy-2-(3-trifluoromethylphenyl) ethanamine]
- g LIPID/MOUSE TREATED (genetically obese mice; 12.2 mg/kg p.o. daily for 28 days, control 20.98): 18.56 g
- % Inhibition of re-sponse to collagen (Male CFLP mice; 10 µmol/kg p.o.): 25 p<0.02%

Compound: CNCCCc1ccc(CC(C)NCC(O)c2cccc(C(F)(F)F)c2)cc1 (stereo not shown) [Example 14, N-(2-(4-(3-N'-Methylaminopropyl)phenyl)-1-methylethyl)-2-hydroxy-2-(3-trifluoromethylphenyl) ethanamine]
- REDUCTION IN AREA UNDER BLOOD GLUCOSE CURVE (%) (Female CFLP mice; 12.5 µ mol/kg orally): 46%

Compound: CNCc1ccc(C[C@@H](C)NC[C@H](O)c2cccc(Cl)c2)cc1 (racemic) [Example 16, (RR,SS) N-(2-(4-N'-Methylaminomethylphenyl)-1-methylethyl) -2-hydroxy-2-(3-chlorophenyl) ethanamine]
- g LIPID/MOUSE TREATED (genetically obese mice; 11.3 mg/kg p.o. daily for 28 days, control 22.55): 16.03 g
- REDUCTION IN AREA UNDER BLOOD GLUCOSE CURVE (%) (Female CFLP mice; 2.5 µ mol/kg orally): 33%

Compound: CNCc1ccc(CC(C)NCC(O)c2cccc(Br)c2)cc1 (stereo not shown) [Example 12, N-(2-(4-N'-Methylaminomethylphenyl)-1-methylethyl)-2-hydroxy-2-(3-bromophenyl) ethanamine]
- g LIPID/MOUSE TREATED (genetically obese mice; 12.5 mg/kg p.o. daily for 28 days, control 24.60): 20.38 g
- REDUCTION IN AREA UNDER BLOOD GLUCOSE CURVE (%) (Female CFLP mice; 2.5 µ mol/kg orally): 37%

Compound: CNCc1ccc(CC(C)NCC(O)c2cccc(Cl)c2)cc1 (stereo not shown) [Example 8, N-(2-(4-N'-Methylaminomethylphenyl)-1-methylethyl)-2-hydroxy-2-(3-chlorophenyl) ethanamine]
- % Inhibition of re-sponse to collagen (Male CFLP mice; 10 µmol/kg p.o.): 37 p<0.001%
- ACTIVITY (rat ear; 2 mg/rat ear): Active
- REDUCTION IN AREA UNDER BLOOD GLUCOSE CURVE (%) (Female CFLP mice; 12.5 µ mol/kg orally): 52%

Compound: CNCc1ccc(CC(C)NCC(O)c2cccc(F)c2)cc1 (stereo not shown) [Example 9, N-(2-(4-N'-Methylaminomethylphenyl)-1-methylethyl)-2-hydroxy-2-(3-fluorophenyl) ethanamine]
- g LIPID/MOUSE TREATED (genetically obese mice; 10.8 mg/kg p.o. daily for 28 days, control 22.95): 20.63 g

Compound: CC(=O)Oc1ccccc1C(=O)O [Aspirin, reference compound]
- % Inhibition of re-sponse to collagen (Male CFLP mice; 600(108) µmol(mg)/kg p.o.): 29 p<0.05%

Compound: CC(Cc1ccc(CN(C)C)cc1)NCC(O)c1cccc(C(F)(F)F)c1 (stereo not shown) [Example 4, N-(2-(4-N'N'-Dimethylaminomethylphenyl)-1-methylethyl)-2-hydroxy-2-(3-trifluoromethylphenyl) ethanamine]
- REDUCTION IN AREA UNDER BLOOD GLUCOSE CURVE (%) (Female CFLP mice; 12.5 µ mol/kg orally): 31%
